According to US9603841B2, “Vector delivery-based microbicides” (Rush University Medical Center, priority 2005, dated 2017):
In brackets after ≈: the same amount, converted by molar mass. Like-named read-outs stand apart in the source and are kept apart here.

What was measured:
[1] = 0.5 mM in 0.1 M PBS, pH 7.4, 37° C.; cited from earlier work
spermatozoa [2] = details: cited from earlier work
spermatozoa [3] = details: cited from earlier work; remark: listed apart in the source
human spermatozoa [4] = assay: Inhibition of fractionated NO23-SAMMA-induced acrosomal loss by protein kinase G inhibitor; format: cell-based; details: Ca2+-independent (absence of added extracellular Ca2+)
Excerpt: NO23-SAMMA, whether fractionated or not, appears, at least in part, to act through release of nitric oxide. Fractionated NO23-SAMMA-induced acrosomal loss in the absence of added extracellular Ca^2+ is inhibited by the selective protein kinase G inhibitor KT5823 (see FIG. 6). […] Acrosomal loss in human spermatozoa in response to NO donors is inhibited by protein kinase G inhibitors ([…] et al., “Signaling pathway of nitric oxide-induced acrosome reaction in human spermatozoa”, Biol. Reprod., 64: 1708-12 (2001)). […] Inhibition of acrosomal loss by the selective protein kinase G inhibitor supports this contention.

HIV-1 Bee = assay: HIV-1 infected primary lymphocytes, agent added after inoculation (p24, day 7); format: cell-based; details: agent added after 2 h inoculation and washing, p24 on day 7
Method: HIV is sensitive to inhibition by the NO donor used to synthesize NO-SAMMA (nitrooxypropanol), although substantially less than to NO-SAMMA. […] Viral replication was measured on day 7 of incubation (p24 levels).

human spermatozoa [5] = assay: Acrosomal loss (AL) in human spermatozoa; format: cell-based; details: for EC50: Homo sapiens, Spermatozoa
Method: Measurement of AL was carried out as described previously. […] All reactions were carried out in either the presence or absence of added extracellular Ca^2+ (1.28 mM). […] Data are expressed as the average % maximal response, based on the AL induced by a maximally stimulating concentration of the calcium ionophore A23187.
Unless otherwise noted, acrosomal loss data were obtained from assays that included Ca^2+ in the extracellular medium. In contrast, acrosomal loss induced by NO donors occurs independent of Ca^2+. […] Although not wishing to be limited by theory, it appears that acrosomal loss in the presence of added extracellular Ca^2+ may be due to either or both moieties, whereas acrosomal loss in the absence of Ca^2+ is due entirely to the NO donor moiety.

hyaluronidase = assay: Hyaluronidase activity inhibition; format: biochemical; details: 50 μM
Method: Hyaluronidase activity was measured as described in Example 8 of U.S. Pat. No. 5,932,619. […] In contrast, the NO donor moiety of NO23-SAMMA, nitrooxypropanol, is nearly without effect.

spermatozoa [6] = assay: Sperm immobilization (modified Sander and Cramer), motile spermatozoa; format: cell-based; details: 10 mM
Excerpt: Data are presented as the percentage of motile spermatozoa at each concentration of test agent. When possible, test outcomes were also reported as the concentration of agent in the semen sample that reduces motility by 50%.

[7] = system: C. trachomatis (serotype E/UW-5/CX); assay: Infection of HeLa cells by C. trachomatis; format: cell-based, Chlamydia trachomatis; details: read-out: IC50 against C. trachomatis
Method: Effect of NO-SAMMA against C. trachomatis. […] This was followed by inoculation of the monolayer with chlamydial elementary bodies. One hour after inoculation, free microbes and/or microbicide were removed by washing, and the HeLa cell cultures were incubated for an additional 48 hours at 37° C. Chlamydia-induced inclusions were measured by immunofluorescence, after reacting cultures with Kallsted chlamydia culture confirmation fluorescein-conjugated monoclonal antibody.

[8] = system: vaginal/cervical epithelial and other cells; details: cited from earlier work

CC/C(=C\C(=N/O)C(N)=O)C(C)[N+](=O)[O-] (racemic) [NOR-3, (±)-E-4-ethyl-2-[(E)-hydroxyimino]-5 nitro-3-hexenamide]
half-life [1]: about 30 minutes

NCCOB(c1ccccc1)c1ccccc1 [2-APB]
effect on SAMMA-induced acrosomal loss (spermatozoa [2]): not inhibited

CCCCCCOC(=O)[C@]1(O)C[C@@H]2O[C@@]1(C)n1c3ccccc3c3c4c(c5c6ccccc6n2c5c31)C(=O)NC4 [KT5720]
effect on SAMMA-induced acrosomal loss (spermatozoa [2]): not inhibited

COC(=O)[C@@]1(OC)C[C@H]2O[C@]1(C)n1c3ccccc3c3c4c(c5c6ccccc6n2c5c31)C(=O)N(C)C4 [KT5823]
effect on NO donor-induced acrosomal loss (spermatozoa [3]; 2 μM): not inhibited | inhibition of SAMMA-induced acrosomal loss (spermatozoa [2]; 2 μM): > 95% | IC50 (human spermatozoa [4]): 700 nM

O=[N+]([O-])OCCCO [Nitrooxypropanol, 3-nitrooxy-1-propanol]
IC50 (HIV-1 Bee; Human immunodeficiency virus 1, Lymphocyte): 2540 µg/mL (≈ 21 mM) | concentration giving 80% reduction (printed in the 3-Log reduction column) (HIV-1 Bee): 1017 (80% reduction) μg/mL | EC50 (human spermatozoa [5]; Ca2+-independent, read-out: ED50 acrosomal loss): 120 nM | EC50 (human spermatozoa [5]; read-out: ED50 as a stimulus of acrosomal loss): 120 nM | Inhibition ± SEM (N = 4) (hyaluronidase): 8 ± 1.8% at 50 μM | % Motile Spermatozoa av ± SEM (n = 4) (spermatozoa [6]): 66 ± 0.5 at 10 mM %

O=c1onc2cnc3ccccc3n12 [ODQ]
inhibition of SAMMA-induced acrosomal loss (spermatozoa [2]; 0.1 μM): ~50%

O=c1c2nc(Br)n([C@@H]3O[C@@H]4CO[P@@](O)(=S)O[C@H]4[C@H]3O)c2nc2[nH]c(-c3ccccc3)cn12 [Rp-8-Br-PET-cGMPS]
effect on NO donor-induced acrosomal loss (spermatozoa [3]; 0.35 μM): not inhibited

nitroprusside
% maximal AL (human spermatozoa [5]; 22 μM): 74% | IC50 [7]: 23000 nM

nonoxynol-9
lowest concentration that can injure cells [8]: about 0.0005%
